The values below come from patent publication US5462725A, “2-pyridylmethylenepolyazamacrocyclophosphonic acids, complexes and derivatives thereof, for use as contrast agents” (priority 1993, dated 1995).

Read-outs that look alike come from different tables or passages of the source.

The conditions of data set [1]: background; cited from earlier work.
The conditions of data set [2]: in vivo; cited from earlier work.
The conditions of data set [3]: background; cited from earlier work. This is another data set of the same source.
Data set [4] can be described thus: Biodistribution of 153Sm complex after tail vein injection. The data set is classed as in vivo, Sprague Dawley rats. Particulars: rat, i.v. tail vein; for % INJECTED DOSE, Blood: blood assumed 6.5% of body weight; for % INJECTED DOSE, Bone: femur x 25; for % INJECTED DOSE, Muscle: muscle assumed 43% of body weight. The method, then:
Sprague Dawley rats were allowed to acclimate for five days then injected with 100 μL of the complex solution via a tail vein. The rats weighed between 150 and 200 g at the time of injection. After 30 min. the rats were killed by cervical dislocation and dissected. The amount of radioactivity in each tissue was determined by counting in a NaI scintillation counter coupled to a multichannel analyzer. The counts were compared to the counts in 100 μL standards in order to determine the percentage of the dose in each tissue or organ.
The percent dose in blood was estimated assuming blood to be 6.5% of the total body weight. The percent dose in bone was estimated by multiplying the percent dose in the femur by 25. The percent dose in muscle was estimated assuming muscle to be 43% of the total body weight. The number of rats used in the average is n.
In addition to organ biodistribution, chelates of the compounds of Formula (I) were evaluated for efficiency of bone localization since phosphonates are known for their ability to bind to hydroxyapatite.
When the complex ^153 Sm[N-(2-pyridylmethyl)-N',N",N'"-tris(methylenephosphonic acid ethyl ester)-1,4,7,10-tetraazacyclododecane] The numbers represent the average of a minimum of 2 rats per data point at 2 hours post injection.
When the complex ^153 Sm[N-(2-pyridylmethyl)-N',N",N'"-tris(methylenephosphonic acid propyl ester)-1,4,7,10-tetraazacyclododecane] The numbers represent the average of a minimum of 3 rats per data point at 2 and 24 hours post injection.

Consider `[Cl][Gd]([Cl])[Cl]` [GdCl3], for which the “side effects / toxicity” value in data set [1] is “toxic to an animal”.
`CNC[C@H](O)[C@@H](O)[C@H](O)[C@H](O)CO.CNC[C@H](O)[C@@H](O)[C@H](O)[C@H](O)CO.O=C([O-])CN(CCN(CC(=O)[O-])CC(=O)O)CCN(CC(=O)[O-])CC(=O)O.[Gd+3]` [Magnevist™, complex of gadolinium with diethylenetriaminepentaacetic acid]: in data set [2], the distribution and elimination result was “freely distribute in extracellular fluid followed by efficient elimination through the renal system”.
Turning to `CC(O)CN1CCN(CC(=O)[O-])CCN(CC(=O)[O-])CCN(CC(=O)[O-])CC1.[Gd+3]` (stereo not drawn) [Prohance™, [1,4,7-tris(carboxymethyl)-10-(2-hydroxypropyl)-1,4,7,10-tetraazacyclododecanato]gadolinium], in data set [1], the “side effects / toxicity” value was “fewer side effects than Magnevist™”. Moreover, the “kinetic stability of DO3A derivative chelates” value in data set [3] is reported as “gains added kinetic stability by virtue of a pendant hydroxyl moiety”. Further, the distribution and elimination entry in data set [2] is “freely distribute in extracellular fluid followed by efficient elimination through the renal system”.
`O=C([O-])CN1CCN(CC(=O)[O-])CCN(Cc2ccccn2)CCN(CC(=O)[O-])CC1.[153Sm+3]` [^153 Sm-PD3A]: the “% Complex” value turned out to be 98.30% (pH 1); 99.38% (pH 2); 99.62% (pH 4); 99.86% (pH 7); 99.86% (pH 9); 99.80% (pH 11). Further, the “% Complex” value (pH 14) was 99.96%.
Turning to `CCOP(=O)([O-])CN1CCN(Cc2ccccn2)CCN(CP(=O)([O-])OCC)CCN(CP(=O)([O-])OCC)CC1.[153Sm+3]` [^153 Sm-PD3EP, ^153 Sm[N-(2-pyridylmethyl)-N',N",N'"-tris(methylenephosphonic acid ethyl ester)-1,4,7,10-tetraazacyclododecane]], for the setting “pH 1”, the “% Complex” value is 78.95%. Also, the “% Complex” value (pH 3) amounted to 93.80%. Also, the “% Complex” value (pH 5) is 93.02%. Also, for the setting “pH 7”, the “% Complex” value was found to be 93.77%. The “% Complex” value (pH 9) is reported as 95.89%. Under “pH 11”, the “% Complex” value was 95.77%. In addition, the “% Complex” value (pH 14) was determined as 94.07%. In addition, in data set [4] (2 hours post injection), the “% INJECTED DOSE, Brain” value amounted to 0.01 % INJECTED DOSE; the “% INJECTED DOSE, Heart” value is recorded as 0.01 % INJECTED DOSE; the “% INJECTED DOSE, Kidney” value was 1.24 % INJECTED DOSE; the “% INJECTED DOSE, Liver” value stood at 0.36 % INJECTED DOSE. In data set [4] (2 hours post injection), the “% INJECTED DOSE, Lung” value amounted to 0.02 % INJECTED DOSE; the “% INJECTED DOSE, Spleen” value was 0.01 % INJECTED DOSE; the “% INJECTED DOSE, Urine” value turned out to be 97.00 % INJECTED DOSE; the “% INJECTED DOSE, Blood” value is 0.45 % INJECTED DOSE. In data set [4] (2 hours post injection), the “% INJECTED DOSE, Bone” value came to 0.82 % INJECTED DOSE and the “% INJECTED DOSE, Muscle” value amounted to 0.62 % INJECTED DOSE.
For the compound `CCCOP(=O)([O-])CN1CCN(Cc2ccccn2)CCN(CP(=O)([O-])OCCC)CCN(CP(=O)([O-])OCCC)CC1.[153Sm+3]` [^153 Sm-PD3PP, ^153 Sm[N-(2-pyridylmethyl)-N',N",N'"-tris(methylenephosphonic acid propyl ester)-1,4,7,10-tetraazacyclododecane]], where the note is “pH 1”, the “% Complex” value is reported as 72.52%. The “% Complex” value (pH 3) turned out to be 87.56%. Further, the “% Complex” value (pH 5) was found to be 92.99%. Further, the “% Complex” value (pH 7) amounted to 95.06%. Besides, the “% Complex” value (pH 9) came out at 95.22%. Under “pH 11”, the “% Complex” value came out at 92.74%. The “% Complex” value (pH 14) is given as 87.65%. Further, in data set [4] (2 hours post injection), the “% INJECTED DOSE, Brain” value is listed as 0.04 % INJECTED DOSE; the “% INJECTED DOSE, Heart” value was 0.04 % INJECTED DOSE; the “% INJECTED DOSE, Kidney” value is given as 0.86 % INJECTED DOSE; the “% INJECTED DOSE, Large Intestine” value was 0.18 % INJECTED DOSE. Besides, in data set [4] (2 hours post injection), the “% INJECTED DOSE, Liver” value was 20.36 % INJECTED DOSE; the “% INJECTED DOSE, Lung” value was determined as 0.20 % INJECTED DOSE; the “% INJECTED DOSE, Small intestine” value worked out at 13.56 % INJECTED DOSE; the “% INJECTED DOSE, Spleen” value is recorded as 1.19 % INJECTED DOSE. In data set [4] (2 hours post injection), the “% INJECTED DOSE, Stomach” value came out at 1.39 % INJECTED DOSE; the “% INJECTED DOSE, Urine” value was 50.00 % INJECTED DOSE; the “% INJECTED DOSE, Blood” value turned out to be 0.68 % INJECTED DOSE; the “% INJECTED DOSE, Bone” value was determined as 5.93 % INJECTED DOSE. The “% INJECTED DOSE, Muscle” value in data set [4] (2 hours post injection) was determined as 0.82 % INJECTED DOSE. In data set [4] (24 hours post injection), the “% INJECTED DOSE, Brain” value worked out at 0.00 % INJECTED DOSE; the “% INJECTED DOSE, Feces” value worked out at 5.33 % INJECTED DOSE; the “% INJECTED DOSE, Heart” value was determined as 0.02 % INJECTED DOSE; the “% INJECTED DOSE, Kidney” value was determined as 0.89 % INJECTED DOSE. Further, in data set [4] (24 hours post injection), the “% INJECTED DOSE, Large Intestine” value is 0.16 % INJECTED DOSE; the “% INJECTED DOSE, Liver” value worked out at 2.31 % INJECTED DOSE; the “% INJECTED DOSE, Lung” value was determined as 0.40 % INJECTED DOSE; the “% INJECTED DOSE, Small intestine” value stood at 0.13 % INJECTED DOSE. Further, in data set [4] (24 hours post injection), the “% INJECTED DOSE, Spleen” value worked out at 0.22 % INJECTED DOSE; the “% INJECTED DOSE, Stomach” value is listed as 0.04 % INJECTED DOSE; the “% INJECTED DOSE, Urine” value is 83.00 % INJECTED DOSE; the “% INJECTED DOSE, Blood” value is 0.03 % INJECTED DOSE. For the same compound, in data set [4] (24 hours post injection), the “% INJECTED DOSE, Bone” value is 12.39 % INJECTED DOSE and the “% INJECTED DOSE, Muscle” value was determined as 0.27 % INJECTED DOSE.
